Values after ≈ are worked out from the molar mass of the structure shown.
Tests used:
Type in all cases: functional
Staphylococcus aureus [1] = experiment: Antimicrobial activity against methicillin-resistant and tetracycline-sensitive Staphylococcus aureus COLn
Staphylococcus aureus [2] = experiment: Antimicrobial activity against methicillin-, tetracycline-susceptible and chromosomal mecA deficient Staphylococcus aureus COLnex
Staphylococcus aureus [3] = experiment: Antimicrobial activity against beta-lactam-resistant and chromosomal mecA deficient Staphylococcus aureus CRB harboring PBP4 E183A F241R, GdpP N182K and AcrB I960V mutant genes selected after 21 days of serial passage in ceftobiprole; conditions: 504 h
Staphylococcus aureus [4] = experiment: Antimicrobial activity against methicillin-resistant Staphylococcus aureus COL
Staphylococcus aureus [5] = experiment: Antimicrobial activity against beta-lactam-resistant and chromosomal mecA deficient Staphylococcus aureus CRB harboring PBP4 E183A F241R, GdpP N182K and AcrB I960V mutant genes selected after 21 days of serial passage; conditions: 504 h

Compound | MIC (Staphylococcus aureus [1]) [µg/mL] | MIC (Staphylococcus aureus [2]) [µg/mL] | MIC (Staphylococcus aureus [3]) [µg/mL] | MIC (Staphylococcus aureus [4]) [µg/mL] | MIC (Staphylococcus aureus [5]) [µg/mL]
CCOc1ccc2ccccc2c1C(=O)N[C@@H]1C(=O)N2[C@@H]1SC(C)(C)[C@@H]2C(=O)O [NAFCILLIN] | 256 (≈ 618 µM) | 0.5 (≈ 1.21 µM) | 128 (≈ 309 µM) | – | –
Cc1nnc(SCC2=C(C(=O)O)N3C(=O)[C@@H](NC(=O)Cn4cnnn4)[C@H]3SC2)s1 [CEFAZOLIN] | 256 (≈ 563 µM) | 0.5 (≈ 1.1 µM) | > 256 | – | –
CO[C@@]1(NC(=O)Cc2cccs2)C(=O)N2C(C(=O)O)=C(COC(N)=O)CS[C@@H]21 [CEFOXITIN] | 256 (≈ 599 µM) | 4 (≈ 9.36 µM) | 8 (≈ 18.7 µM) | – | –
Nc1nc(/C(=N/O)C(=O)N[C@@H]2C(=O)N3C(C(=O)O)=C(/C=C4\CCN([C@@H]5CCNC5)C4=O)CS[C@H]23)ns1 [CEFTOBIPROLE] | 1 (≈ 1.87 µM) | < 0.25 | 128 (≈ 239 µM) | 1 (≈ 1.87 µM) | 128 (≈ 239 µM)
CO/N=C(\C(=O)N[C@@H]1C(=O)N2C(C(=O)O)=C(CSc3nc(=O)c(O)nn3C)CS[C@H]12)c1csc(N)n1 [CEFTRIAXONE] | > 256 | 4 (≈ 7.21 µM) | 256 (≈ 462 µM) | – | –
CC1(C)S[C@@H]2[C@H](NC(=O)[C@H](N)c3ccccc3)C(=O)N2[C@H]1C(=O)O [AMPICILLIN] | – | < 0.25 | 256 (≈ 733 µM) | – | –

From ChEMBL document CHEMBL1687797, “A mecA-negative strain of methicillin-resistant Staphylococcus aureus with high-level β-lactam resistance contains mutations in three genes” (2010)
